This passage reports EC50 and IC50 results from patent US8871774B2, “Inhibitors of influenza viruses replication” (priority 2010, dated 2014).

Assay [1] relates to Influenza virus, strain A/PR/8/34. Briefly: microbe, parasite or virus in culture. The format is cell-based.
The test system of assay [2] is influenza A virus (A/PR/8/34). The assay can be described thus: cytopathic effect (CPE) assay, MDCK cell protection by ATP detection. The conditions noted are these: mean IC50, MDCK cells, A/PR/8/34, 72 hours, 50% cell protection. Type of assay: cell-based. Background: Protection from cytopathic effect is a common read-out in antiviral testing.
[3] abbreviates: unidentified influenza virus, PR/8, read-out: bDNA EC50 (uM).
[4] abbreviates: Influenza A virus, Table 1, read-out: Flu, MDCK IC50.
Where [5] appears, read: Influenza A virus, Table 2, read-out: Flu MDCK IC50.
[6] abbreviates: Table 1, read-out: Flu, MDCK IC50.

pEC50, pIC50: −log10 of the molar value. Counter-ions that a name gives are not always drawn. Like-named read-outs stand apart in the source and are kept apart here.

Broadly, the EC50 is the concentration needed to bring the measured effect to its halfway point. As usually defined, the pIC50 is −log10 of the IC50, conventionally taken in molar units. For `O=C(O)[C@@H]1C2CCC(CC2)[C@H]1Nc1nc(-c2n[nH]c3ncc(Cl)cc23)ncc1F` [Compound I-10, (2R,3R)-3-((2-(5-chloro-1H-pyrazolo[3,4-b]pyridin-3-yl)-5-fluoropyrimidin-4-yl)-amino)bicyclo[2.2.2]octane-2-carboxylic acid], in assay [1] (setting [3]), the half-maximal effective concentration (EC50) is under 3.3 µM. Moreover, the pIC50 in assay [2] (setting [4]) was over 5.48.
The matching figures for `O=C(N[C@@H]1CCC[C@H](Nc2nc(-c3n[nH]c4ncccc34)ncc2F)C1)N1CC[C@@H](F)C1` [Compound I-19, (R)-3-fluoro-N-((1R,3S)-3-((5-fluoro-2-(1H-pyrazolo[3,4-b]pyridin-3-yl)pyrimidin-4-yl)amino)cyclohexyl)pyrrolidine-1-carboxamide]: under 3.3 µM and over 5.48.
In the same order, the values of `O=C(O)[C@H]1C2CCC(CC2)[C@@H]1Nc1nc(-c2n[nH]c3ncc(F)cc23)ncc1Cl` (racemic) [Compound I-33, (+/−)-trans-(2,3)-3-((5-chloro-2-(5-fluoro-1H-pyrazolo[3,4-b]pyridin-3-yl)pyrimidin-4-yl)amino)bicyclo[2.2.2]octane-2-carboxylic acid] are under 3.3 µM and over 5.48.
For `O=C(N[C@@H]1CCC[C@H](Nc2nc(-c3n[nH]c4ncccc34)ncc2F)C1)N1CCCC1` [Compound I-12, N-((1R,3S)-3-((5-fluoro-2-(1H-pyrazolo[3,4-b]pyridin-3-yl)pyrimidin-4-yl)amino)cyclohexyl)pyrrolidine-1-carboxamide], in assay [1] (setting [3]), the EC50 is under 3.3 µM. Also, the pIC50 in assay [2] (setting [4]) was over 5.48.
In the same order, the values of `O=C(N[C@@H]1CCC[C@H](Nc2nc(-c3n[nH]c4ncc(F)cc34)ncc2F)C1)N1CC[C@@H](F)C1` [Compound I-23, (R)-3-fluoro-N-((1R,3S)-3-((5-fluoro-2-(5-fluoro-1H-pyrazolo[3,4-b]pyridin-3-yl)pyrimidin-4-yl)amino)cyclohexyl)pyrrolidine-1-carboxamide] are under 3.3 µM and over 5.48.
Regarding `O=C(N[C@@H]1CCC[C@H](Nc2nc(-c3n[nH]c4ncc(F)cc34)ncc2F)C1)c1ccsc1` [Compound I-41, N-((1R,3S)-3-((5-fluoro-2-(5-fluoro-1H-pyrazolo[3,4-b]pyridin-3-yl)pyrimidin-4-yl)amino)cyclohexyl)thiophene-3-carboxamide], in assay [1] (setting [3]), the EC50 is under 3.3 µM. Further, the pIC50 in assay [2] (setting [5]) was over 5.48.
Turning to `O=C(O)[C@H]1C2CCC(CC2)[C@@H]1Nc1nc(-c2n[nH]c3ncc(F)cc23)ncc1Cl` [Compound I-34, (2S,3S)-3-((5-chloro-2-(5-fluoro-1H-pyrazolo[3,4-b]pyridin-3-yl)pyrimidin-4-yl)amino)bicyclo[2.2.2]octane-2-carboxylic acid], the concentration giving a half-maximal response (EC50) in assay [1] (setting [3]) is under 3.3 µM. In assay [2] (setting [4]), the pIC50 is over 5.48.
For the molecule `O=C(O)[C@H]1C2CCC(CC2)C1Nc1ccnc(-c2n[nH]c3ncc(F)cc23)n1` (mixture of isomers) [Compound I-43, (+/−)-trans-3-((2-(5-fluoro-1H-pyrazolo[3,4-b]pyridin-3-yl)pyrimidin-4-yl)amino)bicyclo[2.2.2]octane-2-carboxylic acid], in assay [1] (setting [3]), the EC50 was under 3.3 µM. For the same molecule, in assay [2] (setting [5]), the pIC50 was over 5.48.
In the case of `O=C(O)[C@@H]1C2CCC(CC2)[C@H]1Nc1nc(-c2n[nH]c3ncc(F)cc23)ncc1Cl` [Compound I-35, (2R,3R)-3-((5-chloro-2-(5-fluoro-1H-pyrazolo[3,4-b]pyridin-3-yl)pyrimidin-4-yl)amino)bicyclo[2.2.2]octane-2-carboxylic acid], the EC50 in assay [1] (setting [3]) is under 3.3 µM. In assay [2] (setting [4]), the pIC50 is over 5.48.
In the same order, the values of `O=C(O)[C@H]1C2CCCC(CC2)[C@@H]1Nc1nc(-c2n[nH]c3ncc(F)cc23)ncc1F` (mixture of isomers) [Compound I-37, (+/−)-7-(5-fluoro-2-(5-fluoro-1H-pyrazolo[3,4-b]pyridin-3-yl)pyrimidin-4-ylamino)bicyclo[3.2.2]nonane-6-carboxylic acid] are under 3.3 µM and over 5.48.
In the same order, the values of `Cn1cnc(C(=O)N[C@@H]2CCC[C@H](Nc3nc(-c4n[nH]c5ncccc45)ncc3F)C2)c1` [Compound I-24, N-((1R,3S)-3-((5-fluoro-2-(1H-pyrazolo[3,4-b]pyridin-3-yl)pyrimidin-4-yl)amino)cyclohexyl)-1-methyl-1H-imidazole-4-carboxamide] are under 3.3 µM and over 5.48.
As for `O=C(N[C@@H]1CCC[C@H](Nc2nc(-c3n[nH]c4ncccc34)ncc2F)C1)N1CCC(F)(F)C1` [Compound I-16, 3,3-difluoro-N-((1R,3S)-3-((5-fluoro-2-(1H-pyrazolo[3,4-b]pyridin-3-yl)pyrimidin-4-yl)amino)cyclohexyl)pyrrolidine-1-carboxamide], the EC50 in assay [1] (setting [3]) was under 3.3 µM. The pIC50 in assay [2] (setting [4]) is over 5.48.
The matching figures for `COC(=O)[C@H]1C2CCCC(CC2)[C@@H]1Nc1nc(-c2n[nH]c3ncc(F)cc23)ncc1F` (mixture of isomers) [Compound I-36, (+/−)-methyl 7-(5-fluoro-2-(5-fluoro-1H-pyrazolo[3,4-b]pyridin-3-yl)pyrimidin-4-ylamino)bicyclo[3.2.2]nonane-6-carboxylate]: under 3.3 µM and over 5.48.
In the case of `O=C(O)[C@H]1CCCC2(CCCC2)[C@@H]1Nc1nc(-c2n[nH]c3ncc(F)cc23)ncc1F` [Compound I-45], the EC50 in assay [1] (setting [3]) was under 3.3 µM. The pIC50 in assay [2] (setting [5]) is over 5.48.
What is called pEC50 is −log10 of the EC50, conventionally taken in molar units. For `O=C(O)[C@H]1C2CCC(CC2)[C@@H]1Nc1nc(-c2n[nH]c3ncc(F)cc23)ncc1F` [Compound I-44], the pEC50 in assay [1] (read-out: bDNA EC50; Table 2; mean EC50; viral RNA level 50% of control wells) was over 5.48. The negative-log IC50 (pIC50) in assay [2] (setting [5]) is over 5.48.
As for `O=C(O)[C@@H]1CCCC2(CCCC2)[C@H]1Nc1nc(-c2n[nH]c3ncc(F)cc23)ncc1F` [Compound I-46], in assay [1] (setting [3]), the EC50 was over 3.3 µM. Further, in assay [2] (setting [5]), the pIC50 was over 5.48.
Consider `C[C@@H]1CCCN1C(=O)N[C@@H]1CCC[C@H](Nc2nc(-c3n[nH]c4ncccc34)ncc2F)C1` [Compound I-18, (R)—N-((1R,3S)-3-((5-fluoro-2-(1H-pyrazolo[3,4-b]pyridin-3-yl)pyrimidin-4-yl)amino)cyclohexyl)-2-methylpyrrolidine-1-carboxamide], for which, in assay [1] (setting [3]), the EC50 is under 3.3 µM. Further, the pIC50 in assay [2] (setting [4]) was over 5.48.
The matching figures for `COC(=O)[C@H]1C2CCC(CC2)[C@@H]1Nc1nc(-c2n[nH]c3ncc(F)cc23)ncc1F` (racemic) [Compound I-28, (+/−) trans-methyl 3-(5-fluoro-2-(5-fluoro-1H-pyrazolo[3,4-b]pyridin-3-yl)pyrimidin-4-ylamino)bicyclo[2.2.2]octane-2-carboxylate]: under 3.3 µM and over 5.48.
The matching figures for `C[C@H]1CCCN1C(=O)N[C@@H]1CCC[C@H](Nc2nc(-c3n[nH]c4ncccc34)ncc2F)C1` [Compound I-15, (S)—N-((1R,3S)-3-((5-fluoro-2-(1H-pyrazolo[3,4-b]pyridin-3-yl)pyrimidin-4-yl)-amino)cyclohexyl)-2-methylpyrrolidine-1-carboxamide]: under 3.3 µM and over 5.48.
`Cn1cncc1C(=O)N[C@@H]1CCC[C@H](Nc2nc(-c3n[nH]c4ncc(F)cc34)ncc2F)C1` [Compound I-27, N-((1R,3S)-3-((5-fluoro-2-(5-fluoro-1H-pyrazolo[3,4-b]pyridin-3-yl)pyrimidin-4-yl)amino)cyclohexyl)-1-methyl-tH-imidazole-5-carboxamide]: in assay [1] (Table 1; mean EC50; viral RNA level 50% of control wells; read-out: bDNA EC50), the pEC50 was over 5.48. Moreover, in assay [2] (setting [6]), the negative logarithm of the IC50 (pIC50) was over 5.48.
Turning to `COC(=O)[C@H]1C2CCC(CC2)C1Nc1ccnc(-c2n[nH]c3ncc(F)cc23)n1` (mixture of isomers) [Compound I-42, (+/−)-trans-methyl-3-((2-(5-fluoro-1H-pyrazolo[3,4-b]pyridin-3-yl)pyrimidin-4-yl)amino)bicyclo[2.2.2]octane-2-carboxylate], in assay [1] (setting [3]), the concentration for a half-maximal effect (EC50) is under 3.3 µM. Further, the pIC50 in assay [2] (setting [5]) was over 5.48.
In the case of `O=C(N[C@@H]1CCC[C@H](Nc2nc(-c3n[nH]c4ncccc34)ncc2F)C1)N1CC[C@H](F)C1` [Compound I-17, (S)-3-fluoro-N-((1R,3S)-3-((5-fluoro-2-(1H-pyrazolo[3,4-b]pyridin-3-yl)pyrimidin-4-yl)amino)cyclohexyl)pyrrolidine-1-carboxamide], in assay [1] (setting [3]), the EC50 is under 3.3 µM. Further, the pIC50 in assay [2] (setting [4]) is over 5.48.
The matching figures for `O=C(O)[C@H]1C2CCC(CC2)[C@@H]1Nc1nc(-c2n[nH]c3ncccc23)ncc1F` (racemic) [Compound I-11, (+/−)-trans-3-((5-fluoro-2-(1H-pyrazolo[3,4-b]pyridin-3-yl)pyrimidin-4-yl)amino)bicyclo-[2.2.2]octane-2-carboxylic acid]: under 3.3 µM and over 5.48.
Consider `O=C(O)[C@H]1C2CCC(CC2)[C@@H]1Nc1nc(-c2n[nH]c3ncc(F)cc23)ncc1F` [Compound I-31, (2S,3S)-3-(5-fluoro-2-(5-fluoro-1H-pyrazolo[3,4-b]pyridin-3-yl)pyrimidin-4-ylamino)bicyclo[2.2.2]octane-2-carboxylic acid sodium salt], for which the negative-log EC50 (pEC50) in assay [1] (read-out: bDNA EC50; Table 1; mean EC50; viral RNA level 50% of control wells) was over 5.48. The pIC50 in assay [2] (setting [6]) was over 5.48.
For `O=C(O)[C@H]1C2CCC(CC2)[C@@H]1Nc1nc(-c2n[nH]c3ncc(Cl)cc23)ncc1F` [Compound I-9, (2S,3 S)-3-((2-(5-chloro-1H-pyrazolo[3,4-b]pyridin-3-yl)-5-fluoropyrimidin-4-yl)-amino)bicyclo[2.2.2]octane-2-carboxylic acid], in assay [1] (setting [3]), the EC50 was under 3.3 µM. In addition, the negative-log IC50 (pIC50) in assay [2] (setting [4]) is over 5.48.
As for `O=C(N[C@@H]1CCC[C@H](Nc2nc(-c3n[nH]c4ncccc34)ncc2F)C1)N1CCC(F)CC1` [Compound I-20], in assay [1] (setting [3]), the concentration giving a half-maximal response (EC50) was under 3.3 µM. For the same molecule, in assay [2] (setting [4]), the pIC50 is over 5.48.
